In ChEMBL document CHEMBL1135738, “Synthesis of novel cationic lipids: effect of structural modification on the efficiency of gene transfer” (J Med Chem, 2002) one finds IC50 data, which are given here for five compounds.

Molecules are shown by their SMILES.

The test relates to V79. In words: Cytotoxic effect of compound was measured in lipid V79cell formulation. In kind it is functional, cell-based. The following applies: Cricetulus griseus.
`CCCCCCCCCCCCOCC(CN)OCCCCCCCCCCCC` (stereo not given) showed an IC50 of 75 µM. The result for `CCCCCCCCCCCCCCCCCCOCC(CN)OCCCCCCCCCCCC` (stereo not given) reads 76 µM.

As for `CCCCCCCCCCCCCCCCCCOCC(CN)OCCCCCCCCCCCCCCCCCC` (stereo not given), half-maximal inhibition (IC50) required 67 µM. On to `CCCCCCCCCCCCOCC(CNC(=O)[C@@H](N)CCCCN)OCCCCCCCCCCCC` (stereo not given in full), for which inhibition was half-maximal at 34 µM (IC50). Regarding `CCCCCCCCCCCCOCC(CNC(=O)[C@@H](N)CCCN=C(N)N)OCCCCCCCCCCCC` (stereo not given in full), inhibition was half-maximal at 20 µM (IC50). This IC50 is about 1.7-fold lower than that of the compound before.

As usually defined, the IC50 is the concentration needed to halve the response being measured. The low end stands for greater potency in that assay, the high end for weaker potency in that assay.
